Reference: the supplement of paper PMC11451515

Tested on: NOMO1
Test: cell viability relative to DMSO control; higher = less cytotoxic
Conditions: 48 h
Method in brief: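 Library compounds in DMSO were pin-dosed in an 11-point threefold series (47 μM to 0.79 nM) onto leukemia cells in 1536-well plates (5 μl). Plates held 500 cells/well of NOMO1 or SEM or 1000 cells/well of P12-Ichikawa, each adapted for at least four passages in each medium. Luminescence was read with CellTiter-Glo One after 48 h at 37°C. Viability means the per-plate percentage relative to DMSO wells, using cell-free wells as background.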

[1] = RPMI 5 mM glucose + 10% FBS, 0.000781 µM
[2] = RPMI 5 mM glucose + 10% FBS, 0.00234 µM
[3] = RPMI 5 mM glucose + 10% FBS, 0.00702 µM
[4] = RPMI 5 mM glucose + 10% FBS, 0.0211 µM
[5] = RPMI 5 mM glucose + 10% FBS, 0.0632 µM
[6] = RPMI 5 mM glucose + 10% FBS, 0.19 µM
[7] = RPMI 5 mM glucose + 10% FBS, 0.569 µM
[8] = RPMI 5 mM glucose + 10% FBS, 1.71 µM
[9] = RPMI 5 mM glucose + 10% FBS, 5.12 µM
[10] = RPMI 5 mM glucose + 10% FBS, 15.4 µM
[11] = RPMI 5 mM glucose + 10% FBS, 46.1 µM
[12] = HPLM + 10% dialyzed FBS, 0.000781 µM
[13] = HPLM + 10% dialyzed FBS, 0.00234 µM
[14] = HPLM + 10% dialyzed FBS, 0.00702 µM
[15] = HPLM + 10% dialyzed FBS, 0.0211 µM
[16] = HPLM + 10% dialyzed FBS, 0.0632 µM
[17] = HPLM + 10% dialyzed FBS, 0.19 µM
[18] = HPLM + 10% dialyzed FBS, 0.569 µM
[19] = HPLM + 10% dialyzed FBS, 1.71 µM
[20] = HPLM + 10% dialyzed FBS, 5.12 µM
[21] = HPLM + 10% dialyzed FBS, 15.4 µM
[22] = HPLM + 10% dialyzed FBS, 46.1 µM
[23] = RPMI 5 mM glucose + 10% dialyzed FBS, 0.000781 µM
[24] = RPMI 5 mM glucose + 10% dialyzed FBS, 0.00234 µM
[25] = RPMI 5 mM glucose + 10% dialyzed FBS, 0.00702 µM
[26] = RPMI 5 mM glucose + 10% dialyzed FBS, 0.0211 µM
[27] = RPMI 5 mM glucose + 10% dialyzed FBS, 0.0632 µM
[28] = RPMI 5 mM glucose + 10% dialyzed FBS, 0.19 µM
[29] = RPMI 5 mM glucose + 10% dialyzed FBS, 0.569 µM
[30] = RPMI 5 mM glucose + 10% dialyzed FBS, 1.71 µM
[31] = RPMI 5 mM glucose + 10% dialyzed FBS, 5.12 µM
[32] = RPMI 5 mM glucose + 10% dialyzed FBS, 15.4 µM
[33] = RPMI 5 mM glucose + 10% dialyzed FBS, 46.1 µM

Row | Structure (SMILES) | cell viability [1] [%] | cell viability [2] [%] | cell viability [3] [%] | cell viability [4] [%] | cell viability [5] [%] | cell viability [6] [%] | cell viability [7] [%] | cell viability [8] [%] | cell viability [9] [%] | cell viability [10] [%] | cell viability [11] [%] | cell viability [12] [%] | cell viability [13] [%] | cell viability [14] [%] | cell viability [15] [%] | cell viability [16] [%] | cell viability [17] [%] | cell viability [18] [%] | cell viability [19] [%] | cell viability [20] [%] | cell viability [21] [%] | cell viability [22] [%] | cell viability [23] [%] | cell viability [24] [%] | cell viability [25] [%] | cell viability [26] [%] | cell viability [27] [%] | cell viability [28] [%] | cell viability [29] [%] | cell viability [30] [%] | cell viability [31] [%] | cell viability [32] [%] | cell viability [33] [%]
1 | COc1cc(OC)c(C(=O)CCCN2CCCC2)c(OC)c1 | 132 | 125 | 122 | 127 | 127 | 116 | 120 | 108 | 119 | 98.4 | 106 |  |  |  |  |  |  |  |  |  |  |  |  |  |  |  |  |  |  |  |  |  | 
2 | C[C@H](Cc1ccc(O)c(O)c1)[C@@H](C)Cc1ccc(O)c(O)c1 | 141 | 114 | 112 | 122 | 117 | 109 | 119 | 114 | 111 | 104 | 57.5 | 130 | 119 | 118 | 117 | 126 | 133 | 134 | 132 | 42 | 99.6 | 18.4 | 119 | 121 | 124 | 107 | 104 | 114 | 113 | 111 | 57 | 94.1 | 27.9
3 | N=C(N)Nc1ccc(C(=O)Oc2ccc3cc(C(=N)N)ccc3c2)cc1 | 93.7 | 84.8 | 83.5 | 86.6 | 90.8 | 86 | 90.7 | 89.8 | 90.5 | 73.3 | 50.6 | 96.3 | 103 | 100 | 100 | 101 | 95.6 | 93.5 | 100 | 81.1 | 89.6 | 48 | 86 | 85.3 | 78.6 | 90.4 | 95.3 | 92.4 | 79.4 | 83.7 | 88.7 | 70.5 | 45.3
4 | COc1ccc(C2(C#N)CCC(C(=O)O)CC2)cc1OC1CCCC1 (stereo unspecified) | 82.4 | 91.8 | 84.9 | 87.5 | 94.1 | 96.8 | 96.3 | 85.7 | 101 | 89.6 | 90.6 | 91 | 109 | 95 | 116 | 120 | 123 | 113 | 113 | 111 | 102 | 108 | 99.5 | 105 | 98.3 | 102 | 98.2 | 95 | 107 | 101 | 101 | 100 | 105
5 | CC(C)c1c(C(=O)Nc2ccccc2)c(-c2ccccc2)c(-c2ccc(F)cc2)n1CC[C@@H](O)C[C@@H](O)CC(=O)[O-] | 96.4 | 91.3 | 94.6 | 90.8 | 88.2 | 116 | 97.6 | 80.1 | 83.7 | 83.5 | 61.5 | 109 | 108 | 118 | 112 | 94.4 | 97.4 | 100 | 97.2 | 88.4 | 75.6 | 52.4 | 90.4 | 100 | 90.9 | 89.6 | 102 | 103 | 92.2 | 77.9 | 73.9 | 67.3 | 48.4
6 | Cc1nc(N)ncc1-c1nc(N2CCOCC2)c2sc(C(C)(C)O)cc2n1 | 109 | 118 | 113 | 117 | 106 | 64 | 18.7 | 18.5 | 10.5 | 9.97 | 9.89 |  |  |  |  |  |  |  |  |  |  |  | 114 | 113 | 94.2 | 111 | 89.5 | 86.4 | 28.1 | 22.6 | 13.3 | 11.4 | 7.33
7 | CN(C)[C@@H](CCOc1cccc2ccccc12)c1ccccc1 | 105 | 112 | 106 | 109 | 119 | 106 | 110 | 113 | 99.8 | 98.4 | 68.9 | 110 | 117 | 129 | 103 | 124 | 114 | 110 | 97.5 | 86.4 | 106 | 70.6 | 113 | 114 | 114 | 111 | 106 | 99 | 119 | 113 | 114 | 92.7 | 52.1
8 | Oc1c(Cl)cc(Cl)c2cccnc12 | 91.7 | 69.2 | 105 | 94.3 | 92.6 | 98.4 | 116 | 90.6 | 84.8 | 91.6 | 62.6 | 102 | 113 | 115 | 93.6 | 97.4 | 92.6 | 113 | 91.4 | 96.2 | 111 | 81.6 | 93.1 | 90.8 | 108 | 97.7 | 103 | 94.3 | 121 | 101 | 101 | 91.7 | 56.5
9 | N[C@@H](Cc1ccc(O)c(O)c1)C(=O)O |  |  |  |  |  |  |  |  |  |  |  | 121 | 133 | 117 | 118 | 144 | 131 | 122 | 136 | 131 | 116 | 55.3 |  |  |  |  |  |  |  |  |  |  | 
10 | CCCCc1nc2cc(/C=C/C(=O)NO)ccc2n1CCN(CC)CC | 80.5 | 83.2 | 83.2 | 87.1 | 94.2 | 89.3 | 86.8 | 85.9 | 28.6 | 4.31 | 4.51 | 109 | 112 | 94.2 | 106 | 86.9 | 99.7 | 85.1 | 84.8 | 39.3 | 4.23 | 6.15 | 74.9 | 98.4 | 86.4 | 91.5 | 94.3 | 97.2 | 86.2 | 79.3 | 57.9 | 5.08 | 4.97
11 | COc1cc(Cl)cn2c(-c3cccc(NC4CNC4)n3)cnc12 |  |  |  |  |  |  |  |  |  |  |  | 123 | 115 | 118 | 142 | 152 | 148 | 141 | 150 | 129 | 129 | 111 |  |  |  |  |  |  |  |  |  |  | 
12 | C=CC(=O)Nc1ccc2ncnc(Nc3ccc(OCc4cccc(F)c4)c(Cl)c3)c2c1 | 92.6 | 91.8 | 114 | 115 | 107 | 95.8 | 101 | 93.3 | 13.6 | 14.7 | 9.53 | 82.4 | 93.3 | 99.9 | 96.7 | 105 | 99.4 | 98.1 | 72.4 | 22.2 | 17.1 | 12.6 | 92.9 | 85.7 | 93.5 | 91.3 | 104 | 92.6 | 93 | 94 | 21.4 | 18.3 | 11.8
13 | CO[C@@H]1[C@@H](O)[C@H](O)[C@@H](n2c3c(Cl)cccc3c3c4c(c5c6cccc(Cl)c6[nH]c5c32)C(=O)NC4=O)O[C@H]1CO | 93.3 | 91.3 | 106 | 105 | 86.7 | 86.4 | 91.7 | 16.7 | 20.3 | 19.3 | 16.4 | 103 | 116 | 106 | 103 | 105 | 107 | 89.6 | 21.6 | 30.5 | 25.7 | 18.3 | 84.7 | 103 | 89.9 | 98.5 | 90.8 | 99.9 | 87.2 | 20.7 | 21.3 | 22.6 | 19.7
14 | Cc1ccc([S+](=O)([O-])Nc2cc(Cl)ccc2C(=O)Nc2nc(-c3ccccc3)cs2)cc1 |  |  |  |  |  |  |  |  |  |  |  | 122 | 117 | 129 | 118 | 121 | 124 | 128 | 119 | 103 | 119 | 9.35 |  |  |  |  |  |  |  |  |  |  | 
15 | NNc1nncc2ccccc12 | 123 | 121 | 128 | 126 | 151 | 124 | 135 | 130 | 128 | 137 | 131 | 115 | 125 | 131 | 139 | 144 | 146 | 134 | 139 | 132 | 119 | 128 | 121 | 139 | 121 | 130 | 137 | 132 | 141 | 138 | 134 | 131 | 141
